Data from patent US7247634B2, “Rifamycin derivatives effective against drug-resistant microbes” (Cumbre Pharmaceuticals Inc., priority 2004, dated 2007).
Converted amounts (≈) assume the structure as drawn. Read-outs that look alike come from different tables or passages of the source.

Experiments:
Type in all cases: cell-based
[1] = system: Streptococcus pyogenes ATCC19615; assay: MIC, microbroth dilution (NCCLS); conditions: rifS strain, THY Broth, 37° C., read-out: Antimicrobial activity (MIC)
[2] = system: Staphylococcus aureus EN1252a gyrA^S84L grlA^S80F; assay: microbe, parasite or virus in culture; conditions: read-out: Antimicrobial activity (MIC)
Outline: (§1)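 MICs by NCCLS broth microdilution, incubation at 37 °C, in cation-adjusted Mueller-Hinton broth. Strains: rifampin-resistant S. aureus ATCC 29213 with rpoB D417Y or H418Y, and quinolone-resistant EN1252a carrying gyrA S84L plus grlA S80F.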

[3] = system: Staphylococcus aureus ATCC29213 rpoB^H418Y; assay: microbe, parasite or virus in culture
Outline: as §1

[4] = system: Staphylococcus aureus ATCC29213 rpoB^D417Y; assay: microbe, parasite or virus in culture
Outline: as §1

[5] = system: Mycobacterium smegmatis ATCC700084; assay: MIC, microbroth dilution (NCCLS); conditions: Mycolicibacterium smegmatis, rifS strain, Middlebrook Broth plus ADC Enrichment, 37° C., read-out: Antimicrobial activity (MIC)
[6] = system: Escherichia coli ATCC25922; assay: MIC, microbroth dilution (NCCLS); conditions: rifS strain, Cation-Adjusted Mueller-Hinton Broth, 37° C., read-out: Antimicrobial activity (MIC)
[7] = system: Streptococcus pneumoniae ATCC6303; assay: MIC, microbroth dilution (NCCLS); conditions: rifS strain, THY Broth with 1 mg/mL catalase, 5% CO2, 37° C., read-out: Antimicrobial activity (MIC)
[8] = system: Haemophilus influenzae ATCC10211; assay: MIC, microbroth dilution (NCCLS); conditions: rifS strain, BHI Broth with NAD and hematin, 37° C., read-out: Antimicrobial activity (MIC)
[9] = system: Staphylococcus aureus ATCC29213; assay: MIC, microbroth dilution (NCCLS); conditions: rifS strain, Cation-Adjusted Mueller-Hinton Broth, 37° C., read-out: Antimicrobial activity (MIC)
[10] = system: Enterococcus faecalis ATCC29212; assay: MIC, microbroth dilution (NCCLS); conditions: rifS strain, BHI Broth, 37° C., read-out: Antimicrobial activity (MIC)
[11] = system: Staphylococcus epidermidis ATCC12228; assay: MIC, microbroth dilution (NCCLS); conditions: rifS strain, Cation-Adjusted Mueller-Hinton Broth, 37° C., read-out: Antimicrobial activity (MIC)
[12] = system: H. influenzae ATCC 10211 and E. coli ATCC 25922; assay: MIC, Gram-negative bacteria (panel); conditions: across two Gram-negative strains
Procedure: (§2) Representative compounds were assayed for antimicrobial activity as follows: Minimum Inhibitory Concentrations (“MICs”) were determined by the microbroth dilution method as per NCCLS guidelines (National Committee for Clinical Laboratory Standards. 2000. Methods for dilution antimicrobial susceptibility tests for bacteria that grow aerobically, 5th ed. M7-A5. National Committee for Clinical Laboratory Standards, Wayne, Pa.), except that all growth incubations were conducted at 37° C. Bacterial cultures were tested in the following bacteriological media: S. aureus, S. epidermidis, and E. coli in Cation-Adjusted Mueller-Hinton Broth, S. pneumoniae in THY Broth supplemented with 1 mg/mL catalase under 5% CO2 atmosphere, S. pyogenes in THY Broth, E. faecalis in BHI Broth, H. influenzae in BHI Broth supplemented with 0.75 μL of 1 mg/mL NAD and 150 μL of 1 mg/ml hematin per 5 mL, and M. smegmatis in Middlebrook Broth plus ADC Enrichment.
(§3) S. aureus ATCC […], S. epidermidis ATCC 12228, S. pneumoniae ATCC6303, S. pyogenes ATCC 19615 and E. faecalis ATCC 29212 are rifampin-susceptible Gram-positive strains. […] H. influenzae ATCC 10211 and E. coli ATCC 25922 are Gram-negative bacteria.

[13] = MIC, rifampin-susceptible Gram-positive strains (panel); conditions: across five rifampin-susceptible Gram-positive strains
Procedure: as §2, §3

[14] = ATCC29213, read-out: Antimicrobial activity (MIC)

CO[C@H]1/C=C/O[C@@]2(C)Oc3c(C)c(O)c4c(c3C2=O)C(=O)C(N2CC(C(=O)N3CCN(c5ccc(N6C[C@H](CNC(C)=O)OC6=O)cc5F)CC3)C2)=C(NC(=O)/C(C)=C\C=C\[C@H](C)[C@H](O)[C@@H](C)[C@@H](O)[C@@H](C)[C@H](OC(C)=O)[C@@H]1C)C4=O [Example 48, 3-{3-(4-[1-(5-methyl-acetamidyl-2-oxo-oxazolidin-3-yl)-5-fluoro-phen-4-yl]-piperazin-1-ylcarbonyl)-azetidin-1-yl}-rifamycin S]
MIC [1]: 0.008 to 0.063 µg/mL (≈ 0.00719 to 0.0566 µM) | MIC [2]: 0.004 to 0.5 µg/mL (≈ 0.00359 to 0.449 µM) | MIC [3, 14]: 0.06 to 16 µg/mL (≈ 0.0539 to 14.4 µM) | MIC [4, 14]: 0.06 to 32 µg/mL (≈ 0.0539 to 28.7 µM) | MIC [5]: 0.5 to 64 µg/mL | MIC [6]: 0.125 to 8 µg/mL (≈ 0.112 to 7.19 µM) | MIC [7]: 0.008 to 0.125 µg/mL (≈ 0.00719 to 0.112 µM) | MIC [8]: 0.125 to 2 µg/mL (≈ 0.112 to 1.8 µM) | MIC [9]: 0.004 to 0.5 µg/mL (≈ 0.00359 to 0.449 µM) | MIC [10]: 2 to 32 µg/mL (≈ 1.8 to 28.7 µM) | MIC [11]: 0.008 to 0.063 µg/mL (≈ 0.00719 to 0.0566 µM)

COc1c(N2CCN(C(=O)C3CCN(C4=C5NC(=O)/C(C)=C\C=C\[C@H](C)[C@H](O)[C@@H](C)[C@@H](O)[C@@H](C)[C@H](OC(C)=O)[C@H](C)[C@@H](OC)/C=C/O[C@@]6(C)Oc7c(C)c(O)c(c(c7C6=O)C4=O)C5=O)CC3)CC2)c(F)cc2c(=O)c(C(=O)O)cn(C3CC3)c12 [Example 51, 3-{4-[4-(3-Carboxy-1-cyclopropyl-6-fluoro-8-methoxy-4-oxo-1,4-dihydroquinolin-7-yl)-piperazin-1-ylcarbonyl]-piperidin-1-yl}rifamycin S]
MIC [1]: 0.008 to 0.063 µg/mL (≈ 0.00686 to 0.054 µM) | MIC [2]: 0.004 to 0.5 µg/mL (≈ 0.00343 to 0.429 µM) | MIC [3, 14]: 0.06 to 16 µg/mL (≈ 0.0514 to 13.7 µM) | MIC [4, 14]: 0.06 to 32 µg/mL (≈ 0.0514 to 27.4 µM) | MIC [5]: 0.5 to 64 µg/mL | MIC [6]: 0.125 to 8 µg/mL (≈ 0.107 to 6.86 µM) | MIC [7]: 0.008 to 0.125 µg/mL (≈ 0.00686 to 0.107 µM) | MIC [8]: 0.125 to 2 µg/mL (≈ 0.107 to 1.71 µM) | MIC [9]: 0.004 to 0.5 µg/mL (≈ 0.00343 to 0.429 µM) | MIC [10]: 2 to 32 µg/mL (≈ 1.71 to 27.4 µM) | MIC [11]: 0.008 to 0.063 µg/mL (≈ 0.00686 to 0.054 µM)

COc1c(N2CC(NC(=O)C3CCN(C4=C5NC(=O)/C(C)=C\C=C\[C@H](C)[C@H](O)[C@@H](C)[C@@H](O)[C@@H](C)[C@H](OC(C)=O)[C@H](C)[C@@H](OC)/C=C/O[C@@]6(C)Oc7c(C)c(O)c(c(c7C6=O)C4=O)C5=O)CC3)C2)c(F)cc2c(=O)c(C(=O)O)cn(C3CC3)c12 [Example 53, 3-{4-[1-(3-Carboxy-1-cyclopropyl-6-fluoro-8-methoxy-4-oxo-1,4-dihydroquinolin-7-yl)-azetidin-3-ylcarbamoyl]-piperidin-1-yl}rifamycin S]
MIC [1]: 0.008 to 0.063 µg/mL (≈ 0.00694 to 0.0547 µM) | MIC [2]: 0.004 to 0.5 µg/mL (≈ 0.00347 to 0.434 µM) | MIC [3, 14]: 0.06 to 16 µg/mL (≈ 0.0521 to 13.9 µM) | MIC [4, 14]: 0.06 to 32 µg/mL (≈ 0.0521 to 27.8 µM) | MIC [5]: 0.5 to 64 µg/mL | MIC [6]: 0.125 to 8 µg/mL (≈ 0.108 to 6.94 µM) | MIC [7]: 0.008 to 0.125 µg/mL (≈ 0.00694 to 0.108 µM) | MIC [8]: 0.125 to 2 µg/mL (≈ 0.108 to 1.74 µM) | MIC [9]: 0.004 to 0.5 µg/mL (≈ 0.00347 to 0.434 µM) | MIC [10]: 2 to 32 µg/mL (≈ 1.74 to 27.8 µM) | MIC [11]: 0.008 to 0.063 µg/mL (≈ 0.00694 to 0.0547 µM)

CO[C@H]1/C=C/O[C@@]2(C)Oc3c(C)c(O)c4c(c3C2=O)C(=O)C(N2CCN(c3nc5c(cc3F)c(=O)c(C(=O)O)cn5C3CC3)CC2)=C(NC(=O)/C(C)=C\C=C\[C@H](C)[C@H](O)[C@@H](C)[C@@H](O)[C@@H](C)[C@H](OC(C)=O)[C@@H]1C)C4=O [Example 55, 3-[1-(3-Carboxy-1-cyclopropyl-6-fluoro-4-oxo-1,4-dihydro-[1,8]naphthyridine-7-yl)-piperazin-4-yl]-rifamycin S]
MIC [1]: 0.008 to 0.063 µg/mL (≈ 0.0078 to 0.0614 µM) | MIC [2]: 0.004 to 0.5 µg/mL (≈ 0.0039 to 0.487 µM) | MIC [3, 14]: 0.06 to 16 µg/mL (≈ 0.0585 to 15.6 µM) | MIC [4, 14]: 0.06 to 32 µg/mL (≈ 0.0585 to 31.2 µM) | MIC [5]: 0.5 to 64 µg/mL | MIC [6]: 0.125 to 8 µg/mL (≈ 0.122 to 7.8 µM) | MIC [7]: 0.008 to 0.125 µg/mL (≈ 0.0078 to 0.122 µM) | MIC [8]: 0.125 to 2 µg/mL (≈ 0.122 to 1.95 µM) | MIC [9]: 0.004 to 0.5 µg/mL (≈ 0.0039 to 0.487 µM) | MIC [10]: 2 to 32 µg/mL (≈ 1.95 to 31.2 µM) | MIC [11]: 0.008 to 0.063 µg/mL (≈ 0.0078 to 0.0614 µM)

CO[C@H]1/C=C/O[C@@]2(C)Oc3c(C)c(O)c4c(c3C2=O)C(=O)C(N2CCCC3(CCN(c5nc6c(cc5F)c(=O)c(C(=O)O)cn6-c5ccc(F)cc5F)C3)C2)=C(NC(=O)/C(C)=C\C=C\[C@H](C)[C@H](O)[C@@H](C)[C@@H](O)[C@@H](C)[C@H](OC(C)=O)[C@@H]1C)C4=O (stereo partly shown) [Example 60]
MIC [1]: 0.008 to 0.063 µg/mL (≈ 0.00694 to 0.0547 µM) | MIC [2]: 0.004 to 0.5 µg/mL (≈ 0.00347 to 0.434 µM) | MIC [3, 14]: 0.06 to 16 µg/mL (≈ 0.0521 to 13.9 µM) | MIC [4, 14]: 0.06 to 32 µg/mL (≈ 0.0521 to 27.8 µM) | MIC [5]: 0.5 to 64 µg/mL | MIC [6]: 0.125 to 8 µg/mL (≈ 0.108 to 6.94 µM) | MIC [7]: 0.008 to 0.125 µg/mL (≈ 0.00694 to 0.108 µM) | MIC [8]: 0.125 to 2 µg/mL (≈ 0.108 to 1.74 µM) | MIC [9]: 0.004 to 0.5 µg/mL (≈ 0.00347 to 0.434 µM) | MIC [10]: 2 to 32 µg/mL (≈ 1.74 to 27.8 µM) | MIC [11]: 0.008 to 0.063 µg/mL (≈ 0.00694 to 0.0547 µM)

CO[C@H]1/C=C/O[C@@]2(C)Oc3c(C)c(O)c4c(O)c(c(/C=N/N5CCN(C)CC5)c(O)c4c3C2=O)NC(=O)/C(C)=C\C=C\[C@H](C)[C@H](O)[C@@H](C)[C@@H](O)[C@@H](C)[C@H](OC(C)=O)[C@@H]1C [rifampin, reference compound]
MIC [1]: 0.013 µg/mL (≈ 0.0158 µM) | MIC [2]: 0.004 µg/mL (≈ 0.00486 µM) | MIC ([3]; ATCC29213): 8 µg/mL (≈ 9.72 µM) | MIC [3, 14]: 8 µg/mL (≈ 9.72 µM) | MIC ([4]; ATCC29213): > 64 µg/mL | MIC [4, 14]: > 64 µg/mL | MIC [5]: 64 µg/mL | MIC [12]: 0.24 to 16 µg/mL (≈ 0.292 to 19.4 µM) | MIC [6]: 16 µg/mL (≈ 19.4 µM) | MIC [7]: 0.061 µg/mL (≈ 0.0741 µM) | MIC [8]: 0.24 µg/mL (≈ 0.292 µM) | MIC [9]: 0.008 µg/mL (≈ 0.00972 µM) | MIC [13]: 0.008 to 1 µg/mL (≈ 0.00972 to 1.22 µM) | MIC [10]: 1 µg/mL (≈ 1.22 µM) | MIC [11]: 0.03 µg/mL (≈ 0.0365 µM)
